The values below come from publication PMC10326263 (Acta Pharmaceutica Sinica. B, 2023).

Data set [1] is described as follows: Cytotoxicity in mock-infected MT-4 cells, MTT method. The format is cell-based. The note with it: human, mock-infected MT-4 cells, CC50, mock-infected MT-4 cells.
Another data set relates to MT-4 cells. The description is as above. The format is cell-based.
The subject of data set [2] is HIV-1 mutant strain L100I. The data set can be described thus: microbe, parasite or virus in culture. The class given is cell-based. The note with it: Human immunodeficiency virus 1, MT4, read-out: EC50 L100I.
The test system of data set [3] is HIV-1 mutant strain K103N. Briefly: microbe, parasite or virus in culture. The class given is cell-based. The note with it: Human immunodeficiency virus 1, MT4, read-out: EC50 K103N.
The subject of data set [4] is HIV-1 mutant strain Y181C. The data set can be described thus: microbe, parasite or virus in culture. The format is cell-based. The note with it: Human immunodeficiency virus 1, MT4, read-out: EC50 Y181C.
In data set [5] the test system is HIV-1 mutant strain Y188L. The data set can be described thus: microbe, parasite or virus in culture. The note with it: Human immunodeficiency virus 1, MT4, read-out: EC50 Y188L. The format is cell-based.
In data set [6] the test system is HIV-1 mutant strain E138K. The data set can be described thus: microbe, parasite or virus in culture. The class given is cell-based. The note with it: Human immunodeficiency virus 1, MT4, read-out: EC50 E138K.
Data set [7] deals with HIV-1 mutant strain F227L + V106A. The data set can be described thus: microbe, parasite or virus in culture. The format is cell-based. The note with it: Human immunodeficiency virus 1, MT4, read-out: EC50 F227L + V106A.
Data set [8] deals with HIV-1 mutant strain RES056 (K103N + Y181C). Briefly: microbe, parasite or virus in culture. The class given is cell-based. The note with it: Human immunodeficiency virus 1, MT4, read-out: EC50 RES056.
The test system of data set [9] is SPF Kunming mice. The data set can be described thus: Acute toxicity experiment in mice. The format is in vivo. The note with it: 7 days.
Data set [10] relates to SPF Kunming mice. The data set can be described thus: Subacute toxicity experiment in mice. The format is in vivo.
Data set [11] can be described thus: In vivo pharmacokinetics study in rats. The note with it: male, Sprague-Dawley, rat, plasma.
The subject of another data set is HIV-1 WT strain (IIIB). The data set can be described thus: Anti-HIV activity against WT HIV-1. The note with it: for selectivity index, times higher than that of IAS-0: WT HIV-1.

Entries after “also recorded” stand apart in the source; their conditions may differ.

The compound `Cc1cc(C)cc(S(=O)(=O)c2c(C(=O)NCCCCNS(=O)(=O)c3cccnc3)[nH]c3ccc(Cl)cc23)c1` [R10L4, 5-Chloro-3-((3,5-dimethylphenyl)sulfonyl)-N-(4-(pyridine-3-sulfonamido)butyl)-1H-indole-2-carboxamide] yielded a CC50 at 5 days in data set [1] of 216000 nM. Also, in the data set with MT-4 cells (CC50, MT-4 cells), the “fold decrease in cytotoxicity compared to IAS-0” value is recorded as approximately 40 fold. Further, the CC50 in the data set on MT-4 cells (mock-infected MT-4 cells) turned out to be 216500 ± 520 nM. The EC50 in [2] stood at 17 ± 2 nM; in data set [3] it was 68 ± 12 nM; in data set [4], 45 ± 10 nM; in data set [5], 540 ± 87 nM; in data set [6], 17 ± 7 nM; in data set [7], 87 ± 35 nM. Further, in [8], the EC50 amounted to 5260 nM. Further, in the data set on SPF Kunming mice [9] (800 mg/kg intragastric), the “mortality or behavior changes, acute toxicity” value is reported as “no remarkable in vivo toxic effects; also recorded: did not lead to any mortality or observable behavior changes”. In the data set with SPF Kunming mice [9] (800 mg/kg, compared with blank group), the “body weight, acute toxicity” value was “only insignificant body weight loss was seen”. Besides, the “mortality or behavior changes, subacute toxicity” value in the data set on SPF Kunming mice [10] (50 mg/kg p.o., 12 days) is “no remarkable in vivo toxic effects; also recorded: did not lead to any mortality or observable behavior changes”. The “body weight, subacute toxicity” value in the data set on SPF Kunming mice [10] (50 mg/kg, 12 days, compared with blank group) is reported as “only insignificant body weight loss was seen”. Besides, the “pathology of hematoxylin and eosin-stained slices from vital organs” value in the data set on SPF Kunming mice [10] (end of subacute toxicity test, heart, liver, spleen, lung, kidney) was “no marked pathological abnormalities”. Moreover, the AUC(0-inf) in [11] (iv, 2 mg/kg) stood at 481 ± 63.3 ng·h/mL; in [11] (po, 10 mg/kg), 203 ± 38.4 ng·h/mL. Moreover, the AUC(0-t) in [11] (iv, 2 mg/kg) was determined as 472 ± 63.4 ng·h/mL; in [11] (po, 10 mg/kg), 199 ± 38.7 ng·h/mL. The MRT inf in [11] (iv, 2 mg/kg) was 1.45 ± 0.09 h; in data set [11] (po, 10 mg/kg), 2.27 ± 0.05 h. The Tmax in data set [11] (iv, 2 mg/kg) worked out at 0.083 h; in data set [11] (po, 10 mg/kg), 0.83 ± 0.15 h. Moreover, the clearance in data set [11] (iv, 2 mg/kg) is 70.2 mL/min/kg. Also, the half-life in data set [11] (iv, 2 mg/kg) was 1.61 ± 0.04 h; in data set [11] (po, 10 mg/kg), 1.78 ± 0.25 h. The Cmax was 657 ± 99.2 ng/mL in data set [11] (iv, 2 mg/kg, i.v. 2 mg/kg) and not above 80 ng/mL in data set [11] (po, 10 mg/kg, p.o. 10 mg/kg). In data set [11] (oral, 10 mg/kg), this compound returned a bioavailability of 8.5%. In the data set with HIV-1 WT strain (IIIB), the “selectivity index, times higher than that of IAS-0” value is approximately 14 times. Further, in the data set on HIV-1 WT strain (IIIB) (WT HIV-1 IIIB), the “SI IIIB (CC50/EC50 ratio)” value is given as 30,930.

Take `Cc1cc(C)cc(S(=O)(=O)c2c(C(=O)NCCCNS(=O)(=O)c3ccccc3F)[nH]c3ccc(Cl)cc23)c1` [R11L3, 5-Chloro-3-((3,5-dimethylphenyl)sulfonyl)-N-(3-((2-fluorophenyl)sulfonamido)propyl)-1H-indole-2-carboxamide]: the CC50 at 5 days in data set [1] was determined as 192000 ± 4990 nM. Besides, the EC50 came to 160 ± 78 nM in data set [2]; 280 ± 35 nM in data set [3]; 610 ± 140 nM in data set [4]; 7120 ± 760 nM in data set [5]; 68 ± 2 nM in data set [6]; 880 ± 520 nM in data set [7]. Also, the EC50 in [8] was determined as 12800 ± 10100 nM. Further, the “SI IIIB (CC50/EC50 ratio)” value in the data set with HIV-1 WT strain (IIIB) (WT HIV-1 IIIB) is 12,570.

Consider `Cc1cc(C)cc(S(=O)(=O)c2c(C(=O)NCCCCNS(=O)(=O)c3ccccc3F)[nH]c3ccc(Cl)cc23)c1` [R11L4, 5-Chloro-3-((3,5-dimethylphenyl)sulfonyl)-N-(4-((2-fluorophenyl)sulfonamido)butyl)-1H-indole-2-carboxamide], for which the CC50 at 5 days in data set [1] was determined as 189500 ± 1320 nM. Moreover, the EC50 in [2] amounted to 63 ± 25 nM; in data set [3], 170 ± 17 nM; in data set [4], 200 ± 17 nM; in data set [5] it was 1740 ± 320 nM; in data set [6], 36 ± 5 nM; in [7] it was 290 ± 34 nM. The half-maximal effective concentration (EC50) in [8] is more than 190000 nM. Moreover, in the data set on HIV-1 WT strain (IIIB) (WT HIV-1 IIIB), the “SI IIIB (CC50/EC50 ratio)” value is 20,621.

For `Cc1cc(C)cc(S(=O)(=O)c2c(C(=O)NCCNS(=O)(=O)c3cccc(F)c3)[nH]c3ccc(Cl)cc23)c1` [R12L2, 5-Chloro-3-((3,5-dimethylphenyl)sulfonyl)-N-(2-((3-fluorophenyl)sulfonamido)ethyl)-1H-indole-2-carboxamide], it took 187000 ± 4810 nM to reach half-maximal cytotoxicity in data set [1] (CC50 at 5 days). The EC50 in data set [2] came out at 460 ± 180 nM; in data set [3], 500 ± 89 nM; in data set [4], 550 ± 89 nM; in [5] it was 3300 ± 300 nM; in data set [6], 440 ± 110 nM; in [7], 2260 ± 550 nM. The EC50 in data set [8] was 4940 ± 1240 nM. Further, the “SI IIIB (CC50/EC50 ratio)” value in the data set with HIV-1 WT strain (IIIB) (WT HIV-1 IIIB) was 5151.

`Cc1cc(C)cc(S(=O)(=O)c2c(C(=O)NCCCNS(=O)(=O)c3cccc(F)c3)[nH]c3ccc(Cl)cc23)c1` [R12L3, 5-Chloro-3-((3,5-dimethylphenyl)sulfonyl)-N-(3-((3-fluorophenyl)sulfonamido)propyl)-1H-indole-2-carboxamide]: in [1], the CC50 at 5 days was 204000 ± 10800 nM. Further, the EC50 worked out at 260 ± 87 nM in data set [2]; 450 ± 120 nM in [3]; 750 ± 210 nM in data set [4]; 3380 ± 450 nM in data set [5]; 110 ± 43 nM in [6]; 990 ± 140 nM in data set [7]. Also, the EC50 in data set [8] was 4730 ± 1040 nM. In the data set on HIV-1 WT strain (IIIB) (WT HIV-1 IIIB), the “SI IIIB (CC50/EC50 ratio)” value is listed as 5799.

Compound `Cc1cc(C)cc(S(=O)(=O)c2c(C(=O)NCCCCNS(=O)(=O)c3cccc(F)c3)[nH]c3ccc(Cl)cc23)c1` [R12L4, 5-Chloro-3-((3,5-dimethylphenyl)sulfonyl)-N-(4-((3-fluorophenyl)sulfonamido)butyl)-1H-indole-2-carboxamide] came in with a CC50 at 5 days in [1] of 186000 ± 12500 nM. Also, the EC50 in data set [2] was 63 ± 17 nM; in data set [3], 240 ± 68 nM; in data set [4], 190 ± 34 nM; in data set [5], 1450 ± 410 nM; in data set [6], 49 ± 12 nM; in [7], 240 ± 34 nM. In [8], the EC50 was more than 173000 nM. Besides, the “SI IIIB (CC50/EC50 ratio)” value in the data set with HIV-1 WT strain (IIIB) (WT HIV-1 IIIB) was 10,126.

Compound `Cc1cc(C)cc(S(=O)(=O)c2c(C(=O)NCCNS(=O)(=O)C3CC3)[nH]c3ccc(Cl)cc23)c1` [R13L2, 5-Chloro-N-(2-(cyclopropanesulfonamido)ethyl)-3-((3,5-dimethylphenyl)sulfonyl)-1H-indole-2-carboxamide] registered a CC50 at 5 days in data set [1] of 172000 ± 6910 nM. In addition, the EC50 in [2] was determined as 53 ± 22 nM; in data set [3] it was 110 ± 20 nM; in data set [4], 180 ± 57 nM; in [5], 1650 ± 390 nM; in data set [6] it was 55 ± 16 nM; in data set [7], 510 ± 120 nM. The EC50 was found to be 32600 ± 7960 nM in [8] and 4.1 ± 0.79 nM in the data set with HIV-1 WT strain (IIIB) (read-out: EC50 IIIB, WT HIV-1 IIIB, MT-4 cells). For the same compound, the “selectivity index, times higher than that of IAS-0” value in the data set with HIV-1 WT strain (IIIB) is given as approximately 14 times. In the data set with HIV-1 WT strain (IIIB) (WT HIV-1 IIIB), the “SI IIIB (CC50/EC50 ratio)” value is recorded as 41,951.

Take `Cc1cc(C)cc(S(=O)(=O)c2c(C(=O)NCCNS(=O)(=O)c3ccc(-c4ccccc4)cc3)[nH]c3ccc(Cl)cc23)c1` [R14L2, N-(2-([1,1′-Biphenyl]-4-sulfonamido)ethyl)-5-chloro-3-((3,5-dimethylphenyl)sulfonyl)-1H-indole-2-carboxamide]: in data set [1], the CC50 at 5 days came to 64300 ± 11200 nM. Moreover, the EC50 is 950 ± 97 nM in [2]; 1190 ± 260 nM in [3]; 1420 ± 370 nM in data set [4]; more than 31200 nM in [5]; 740 ± 97 nM in data set [6]; 2990 ± 680 nM in data set [7]. Moreover, in data set [8], the EC50 is more than 82400 nM. Besides, in the data set with HIV-1 WT strain (IIIB) (WT HIV-1 IIIB), the “SI IIIB (CC50/EC50 ratio)” value was found to be 317.
